# Experimental data taken from paper PMC4335062, “Data-Driven Prediction and Design of bZIP Coiled-Coil Interactions” (PLoS Computational Biology, 2015).
# Read-outs that look alike come from different tables or passages of the source. Where no end group is shown, it is not given here.
# How the values were obtained:
# Test in all cases: Direct-binding FRET assay
# ATF5 = molecular target: T1, ATF5 (Homo sapiens, UniProt Q9Y2D1); settings: read-out: Kd
# T1 construct: made in house
# T1 sequence (Q9Y2D1 208-271 limits assumed): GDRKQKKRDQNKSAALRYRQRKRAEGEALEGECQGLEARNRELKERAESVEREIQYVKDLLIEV
# Experimental: (§1) The direct binding assay was performed manually in 384-well plates and is similar to a previously described assay. Wells were filled with 20 μL of 1 mM TCEP-HCl. A 4 μM stock of acceptor protein was made fresh in 1 mM TCEP-HCl, and 20 μL was titrated in 2-fold dilutions over the wells. […] The direct-binding FRET data were fit as previously described. Briefly, the Kd of the designed peptide homodimer was experimentally determined and used with previously determined target homodimer Kd values to determine the heterodimer Kd. The homodimer Kd values used for the human bZIPs were from; experiments done by […] et al. used the same protein constructs for the human bZIP proteins, the same buffer conditions, and the same assay. The fitting used a system of ordinary differential equations to describe the concentrations of homo and heterodimers formed by the donor (D) and acceptor (A) as a function of the heterodimer Kd. MATLAB was used to simulate the binding experiment for different Kd values, and the value that gave the best agreement between simulation and experiment was assigned. A minimum 15% change in the donor fluorescence upon titrating the acceptor peptide from 0 to 1000 nM was required for a fit to be attempted. If this minimum was not met, the interaction was classified as “NS” for no signal change. […] These interactions were marked “AS” to indicate anomalous signal. We attributed this to interactions between the peptides, the dyes and the walls of the assay plates at low concentrations. These curves could not be fit, given their unusual shapes at low concentrations of acceptor. For such curves, we removed the first five points and re-fit the data. […] One example of this is increasing concentrations of acceptor causing an increase in donor fluorescence.
# BATF = molecular target: T2, BATF (Homo sapiens, UniProt Q16520); settings: read-out: Kd
# T2 construct: made in house
# T2 sequence (Q16520 26-89 limits assumed): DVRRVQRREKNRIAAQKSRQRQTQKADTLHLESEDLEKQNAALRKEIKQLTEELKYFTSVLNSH
# Experimental: as §1
# BATF2 = molecular target: T3, BATF2 (Homo sapiens, UniProt Q8N1L9); settings: mean or single, read-out: Kd
# T3 construct: made in house
# T3 sequence (Q8N1L9 17-80 limits assumed): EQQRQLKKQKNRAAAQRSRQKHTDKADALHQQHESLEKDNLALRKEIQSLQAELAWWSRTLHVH
# Experimental: as §1
# CREB3 = molecular target: T4, CREB3 (Homo sapiens, UniProt O43889); settings: mean or single, read-out: Kd
# T4 construct: made in house
# T4 sequence (O43889 150-213 limits assumed): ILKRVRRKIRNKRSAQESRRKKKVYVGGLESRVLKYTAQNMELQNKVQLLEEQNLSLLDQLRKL
# Experimental: as §1
# CREB3L1 = molecular target: T5, CREB3L1 (Homo sapiens, UniProt Q96BA8); settings: read-out: Kd
# T5 construct: made in house
# T5 sequence (Q96BA8 290-353 limits assumed): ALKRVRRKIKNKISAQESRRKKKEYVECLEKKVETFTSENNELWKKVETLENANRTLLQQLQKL
# Experimental: as §1
# CREB3L3 = molecular target: T6, CREB3L3 (Homo sapiens, UniProt Q68CJ9); settings: mean or single, read-out: Kd
# T6 construct: made in house
# T6 sequence (Q68CJ9 243-306 limits assumed): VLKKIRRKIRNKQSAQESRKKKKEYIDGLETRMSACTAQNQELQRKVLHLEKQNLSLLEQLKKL
# Experimental: as §1
# DBP = molecular target: T7, DBP (Homo sapiens, UniProt Q10586); settings: read-out: Kd
# T7 construct: made in house
# T7 sequence (Q10586 255-318 limits assumed): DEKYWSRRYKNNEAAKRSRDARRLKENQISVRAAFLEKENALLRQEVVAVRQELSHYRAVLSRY
# Experimental: as §1
# FOSL1 = molecular target: T8, FOSL1 (Homo sapiens, UniProt P15407); settings: mean or single, read-out: Kd
# T8 construct: made in house
# T8 sequence (P15407 105-168 limits assumed): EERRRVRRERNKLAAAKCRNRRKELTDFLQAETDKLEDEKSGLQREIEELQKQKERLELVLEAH
# Experimental: as §1
# JUNB = molecular target: T9, JUNB (Homo sapiens, UniProt P17275); settings: mean or single, read-out: Kd
# T9 construct: made in house
# T9 sequence (P17275 268-331 limits assumed): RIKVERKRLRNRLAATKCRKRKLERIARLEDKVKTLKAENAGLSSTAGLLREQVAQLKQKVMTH
# Experimental: as §1
# NFE2L2 = molecular target: T10, NFE2L2 (Homo sapiens, UniProt Q16236); settings: read-out: Kd
# T10 construct: made in house
# T10 sequence (Q16236 497-560 limits assumed): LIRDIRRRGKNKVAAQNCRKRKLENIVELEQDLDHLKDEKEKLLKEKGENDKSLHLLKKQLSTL
# Experimental: as §1
# [1] = 4°C, C-terminal rhodamine design, mean or single
# [2] = 4°C, N-terminal rhodamine design, mean or single
# [3] = 23°C, C-terminal rhodamine design, mean or single
# [4] = 23°C, N-terminal rhodamine design, mean or single
# [5] = 37°C, C-terminal rhodamine design, mean or single
# [6] = 37°C, N-terminal rhodamine design, mean or single
# [7] = 4°C, C-terminal fluorescein design as donor, TAMRA target titrated
# [8] = 23°C, C-terminal fluorescein design as donor, TAMRA target titrated
# [9] = 37°C, C-terminal fluorescein design as donor, TAMRA target titrated
# [10] = 4°C, C-terminal rhodamine design
# [11] = 4°C, N-terminal rhodamine design
# [12] = 23°C, C-terminal rhodamine design
# [13] = 23°C, N-terminal rhodamine design
# [14] = 37°C, C-terminal rhodamine design
# [15] = 37°C, N-terminal rhodamine design
sequence,measurement,setting,value
EREAQLENRVAHLKEKNQELKAQNLHLKEALSEAQNRNQELKNDA [XBP1-d1],Kd,ATF5; [1],> 1000 nM
same,Kd,ATF5; [2],> 1000 nM
same,Kd,ATF5; [3],> 1000 nM
same,Kd,ATF5; [4],> 1000 nM
same,Kd,ATF5; [5],> 1000 nM
same,Kd,ATF5; [6],> 1000 nM
same,Kd,BATF; [7],> 5000 nM
same,Kd,BATF; [1],> 5000 nM
same,Kd,BATF; [2],> 1000 nM
same,Kd,BATF; [8],> 1000 nM
same,Kd,BATF; [3],> 1000 nM
same,Kd,BATF; [4],> 1000 nM
same,Kd,BATF; [9],> 1000 nM
same,Kd,BATF; [5],> 1000 nM
same,Kd,BATF; [6],> 1000 nM
same,Kd,BATF2; [10],< 200 nM
same,Kd,BATF2; [11],> 1000 nM
same,Kd,BATF2; [12],> 1000 nM
same,Kd,BATF2; [13],> 1000 nM
same,Kd,BATF2; [14],> 1000 nM
same,Kd,BATF2; [15],> 1000 nM
same,Kd,CREB3; [10],> 1000 nM
same,Kd,CREB3; [11],> 1000 nM
same,Kd,CREB3; [12],> 1000 nM
same,Kd,CREB3; [13],> 1000 nM
same,Kd,CREB3; [14],> 1000 nM
same,Kd,CREB3; [15],> 1000 nM
same,Kd,CREB3L1; [7],> 1000 nM
same,Kd,CREB3L1; [1],> 1000 nM
same,Kd,CREB3L1; [2],> 1000 nM
same,Kd,CREB3L1; [8],> 1000 nM
same,Kd,CREB3L1; [3],> 1000 nM
same,Kd,CREB3L1; [4],> 1000 nM
same,Kd,CREB3L1; [9],> 1000 nM
same,Kd,CREB3L1; [5],> 1000 nM
same,Kd,CREB3L1; [6],> 1000 nM
same,Kd,CREB3L3; [10],> 1000 nM
same,Kd,CREB3L3; [11],> 1000 nM
same,Kd,CREB3L3; [12],> 1000 nM
same,Kd,CREB3L3; [13],> 1000 nM
same,Kd,CREB3L3; [14],> 1000 nM
same,Kd,CREB3L3; [15],> 1000 nM
same,Kd,DBP; [7],> 1000 nM
same,Kd,DBP; [1],> 1000 nM
same,Kd,DBP; [2],> 1000 nM
same,Kd,DBP; [8],> 1000 nM
same,Kd,DBP; [3],> 1000 nM
same,Kd,DBP; [4],> 1000 nM
same,Kd,DBP; [9],> 1000 nM
same,Kd,DBP; [5],> 1000 nM
same,Kd,DBP; [6],> 1000 nM
same,Kd,FOSL1; [10],> 1000 nM
same,Kd,FOSL1; [11],> 1000 nM
same,Kd,FOSL1; [12],> 1000 nM
same,Kd,FOSL1; [13],> 1000 nM
same,Kd,FOSL1; [14],> 1000 nM
same,Kd,FOSL1; [15],> 1000 nM
same,Kd,JUNB; [10],> 1000 nM
same,Kd,JUNB; [11],> 1000 nM
same,Kd,JUNB; [12],> 1000 nM
same,Kd,JUNB; [13],> 1000 nM
same,Kd,JUNB; [14],> 1000 nM
same,Kd,JUNB; [15],> 1000 nM
same,Kd,NFE2L2; [7],> 1000 nM
same,Kd,NFE2L2; [1],> 1000 nM
same,Kd,NFE2L2; [2],> 1000 nM
same,Kd,NFE2L2; [8],> 1000 nM
same,Kd,NFE2L2; [3],> 1000 nM
same,Kd,NFE2L2; [4],> 1000 nM
same,Kd,NFE2L2; [9],> 1000 nM
same,Kd,NFE2L2; [5],> 1000 nM
same,Kd,NFE2L2; [6],> 1000 nM
KRIAYLRQRIAELRNENHVLESRIQRMEKEKDALQQDRDHLEYEL [ATF5-d1],Kd,ATF5; [1],1.1 nM
same,Kd,"ATF5; 4°C, N-terminal rhodamine design, repeat 3",200 to 1000 nM
same,Kd,ATF5; [5],1680 nM
same,Kd,"ATF5; 37°C, N-terminal rhodamine design, repeat 1",> 1000 nM
same,Kd,"ATF5; 37°C, N-terminal rhodamine design, repeat 2",> 1000 nM
same,Kd,"ATF5; 37°C, N-terminal rhodamine design, repeat 3",> 5000 nM
same,Kd,BATF; [1],> 5000 nM
same,Kd,BATF; [2],136 nM
same,Kd,BATF; [3],> 5000 nM
same,Kd,BATF; [4],382 nM
same,Kd,BATF; [5],> 5000 nM
same,Kd,BATF; [6],> 5000 nM
same,Kd,BATF2; [10],591 nM
same,Kd,BATF2; [11],76 nM
same,Kd,BATF2; [12],> 5000 nM
same,Kd,BATF2; [13],509 nM
same,Kd,BATF2; [14],> 1000 nM
same,Kd,BATF2; [15],> 5000 nM
same,Kd,CREB3; [10],147 nM
same,Kd,CREB3; [11],> 1000 nM
same,Kd,CREB3; [12],> 5000 nM
same,Kd,CREB3; [13],> 1000 nM
same,Kd,CREB3; [14],200 to 1000 nM
same,Kd,CREB3; [15],> 1000 nM
same,Kd,CREB3L1; [1],158 nM
same,Kd,CREB3L1; [2],> 5000 nM
same,Kd,CREB3L1; [3],529 nM
same,Kd,CREB3L1; [4],> 5000 nM
same,Kd,CREB3L1; [6],> 1000 nM
same,Kd,CREB3L3; [10],230 nM
same,Kd,CREB3L3; [11],> 5000 nM
same,Kd,CREB3L3; [12],414 nM
same,Kd,CREB3L3; [13],> 5000 nM
same,Kd,CREB3L3; [14],657 nM
same,Kd,CREB3L3; [15],> 1000 nM
same,Kd,DBP; [1],> 1000 nM
same,Kd,DBP; [2],> 5000 nM
same,Kd,DBP; [3],> 1000 nM
same,Kd,DBP; [4],> 1000 nM
same,Kd,DBP; [5],> 1000 nM
same,Kd,DBP; [6],> 1000 nM
same,Kd,FOSL1; [10],84.1 nM
same,Kd,FOSL1; [11],271 nM
same,Kd,FOSL1; [12],695 nM
same,Kd,FOSL1; [13],> 5000 nM
same,Kd,FOSL1; [14],> 1000 nM
same,Kd,JUNB; [10],3620 nM
same,Kd,JUNB; [11],> 1000 nM
same,Kd,JUNB; [12],> 1000 nM
same,Kd,JUNB; [13],> 1000 nM
same,Kd,JUNB; [14],> 1000 nM
same,Kd,JUNB; [15],> 1000 nM
same,Kd,NFE2L2; [1],> 5000 nM
same,Kd,NFE2L2; [2],> 1000 nM
same,Kd,NFE2L2; [3],> 1000 nM
same,Kd,NFE2L2; [4],> 1000 nM
same,Kd,NFE2L2; [5],> 5000 nM
same,Kd,NFE2L2; [6],> 1000 nM
